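Test compounds were applied to cells in 96-well plates for 48 hours at 5 doses. GI50 = concentration required for 50% inhibition of growth.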 Calls of active or inactive are those of the source. No stated cut-off is given here; in the data, active = GI50 up to about 1.1 µM and inactive = higher.
How the values were obtained:
Experiment in all cases: growth of human tumour cells (NCI), 48 h
[1] = test system: HCT-15
[2] = test system: HOP-62
[3] = test system: SF-268
[4] = test system: NCI-H460
[5] = test system: NCI-H23
[6] = test system: HCT-116
[7] = test system: SW-620
[8] = test system: EKVX
[9] = test system: UACC-257
[10] = test system: MOLT-4
[11] = test system: RXF 393
[12] = test system: SNB-75
[13] = test system: SK-OV-3
[14] = test system: SN12C
[15] = test system: HCC 2998
[16] = test system: OVCAR-5
[17] = test system: TK-10
[18] = test system: SF-295
[19] = test system: KM12

SMILES: CN(C)CCN(C)C(=O)C1CCCN1C(=O)OCc1ccccc1 (stereo not given)
- GI50 [1]: > 100 µM
- GI50 [2]: > 100 µM (inactive)
- GI50 [3]: > 100 µM (inactive)
- GI50 [4]: > 100 µM (inactive)
- GI50 [5]: > 100 µM (inactive)
- GI50 [6]: > 100 µM (inactive)
- GI50 [7]: > 100 µM (inactive)
- GI50 [8]: > 100 µM (inactive)
- GI50 [9]: > 100 µM (inactive)
- GI50 [10]: > 100 µM (inactive)
- GI50 [11]: > 100 µM (inactive)
- GI50 [12]: > 100 µM (inactive)
- GI50 [13]: > 100 µM (inactive)
- GI50 [14]: > 100 µM (inactive)
- GI50 [15]: > 100 µM (inactive)
- GI50 [16]: > 100 µM (inactive)
- GI50 [17]: > 100 µM (inactive)
- GI50 [18]: > 100 µM (inactive)

SMILES: CC(C)(C)[C@H]1CO[C@]2(C)[C@@H]3C[C@@H]3C(=O)N12
- GI50 [1]: > 100 µM
- GI50 [2]: > 100 µM (inactive)
- GI50 [3]: > 100 µM (inactive)
- GI50 [4]: > 100 µM (inactive)
- GI50 [5]: > 100 µM (inactive)
- GI50 [6]: > 100 µM (inactive)
- GI50 [7]: > 100 µM (inactive)
- GI50 [8]: > 100 µM (inactive)
- GI50 [9]: > 100 µM (inactive)
- GI50 [11]: > 100 µM (inactive)
- GI50 [12]: > 100 µM (inactive)
- GI50 [13]: > 100 µM (inactive)
- GI50 [14]: > 100 µM (inactive)
- GI50 [15]: > 100 µM (inactive)
- GI50 [16]: > 100 µM (inactive)
- GI50 [19]: > 100 µM (inactive)
- GI50 [17]: > 100 µM (inactive)
- GI50 [18]: > 100 µM (inactive)

SMILES: N#CC12Cc3cc4c(cc3-c3cccc(c31)CCN2C(=O)c1ccccc1)OCO4 (stereo not given)
- GI50 [2]: 53.8 µM (inactive)
- GI50 [3]: > 100 µM (inactive)
- GI50 [5]: > 100 µM (inactive)
- GI50 [6]: > 100 µM (inactive)
- GI50 [7]: > 100 µM (inactive)
- GI50 [8]: > 100 µM (inactive)
- GI50 [9]: > 100 µM (inactive)
- GI50 [10]: > 100 µM (inactive)
- GI50 [11]: 53.1 µM (inactive)
- GI50 [12]: 21.6 µM (inactive)
- GI50 [13]: > 100 µM (inactive)
- GI50 [14]: > 100 µM (inactive)
- GI50 [15]: > 100 µM (inactive)
- GI50 [16]: > 100 µM (inactive)
- GI50 [19]: > 100 µM (inactive)
- GI50 [17]: > 100 µM (inactive)
- GI50 [18]: > 100 µM (inactive)

SMILES: COc1ccc(N2C(=O)C3c4[nH]c5ccccc5c4C4CC(C)CC(C)C4C3C2=O)cc1 (stereo not given)
- GI50 [1]: > 100 µM
- GI50 [2]: > 100 µM (inactive)
- GI50 [3]: > 100 µM (inactive)
- GI50 [5]: > 100 µM (inactive)
- GI50 [6]: > 100 µM (inactive)
- GI50 [7]: > 100 µM (inactive)
- GI50 [8]: > 100 µM (inactive)
- GI50 [9]: > 100 µM (inactive)
- GI50 [10]: > 100 µM (inactive)
- GI50 [11]: > 100 µM (inactive)
- GI50 [12]: > 100 µM (inactive)
- GI50 [13]: > 100 µM (inactive)
- GI50 [14]: > 100 µM (inactive)
- GI50 [15]: > 100 µM (inactive)
- GI50 [18]: > 100 µM (inactive)

SMILES: CCOC(=O)C1=C(Nc2cccc3ccccc23)OC/C1=N\NC(=O)c1ccccc1O
- GI50 [1]: 14.7 µM
- GI50 [2]: 13.5 µM (inactive)
- GI50 [3]: 13.4 µM (inactive)
- GI50 [4]: 14.8 µM (inactive)
- GI50 [5]: 4.09 µM (inactive)
- GI50 [6]: 19.1 µM (inactive)
- GI50 [7]: 18.8 µM (inactive)
- GI50 [8]: 21.3 µM (inactive)
- GI50 [9]: 22.9 µM (inactive)
- GI50 [10]: 12.6 µM (inactive)
- GI50 [11]: 3.96 µM (inactive)
- GI50 [12]: 3.39 µM (inactive)
- GI50 [13]: 26 µM (inactive)
- GI50 [14]: 23.4 µM (inactive)
- GI50 [15]: 54.1 µM (inactive)
- GI50 [16]: 20.6 µM (inactive)
- GI50 [19]: 25.3 µM (inactive)
- GI50 [17]: 21.1 µM (inactive)
- GI50 [18]: 22.8 µM (inactive)

SMILES: Nc1ccc(/N=N/c2ccccc2)cc1
- GI50 [1]: 41.2 µM
- GI50 [2]: 42 µM (inactive)
- GI50 [4]: 29.1 µM (inactive)
- GI50 [5]: 61.5 µM (inactive)
- GI50 [6]: 54.6 µM (inactive)
- GI50 [7]: 51.8 µM (inactive)
- GI50 [8]: 28.2 µM (inactive)
- GI50 [9]: > 100 µM (inactive)
- GI50 [10]: 11.7 µM (inactive)
- GI50 [11]: 20.1 µM (inactive)
- GI50 [12]: 10.3 µM (inactive)
- GI50 [13]: > 100 µM (inactive)
- GI50 [14]: 69.5 µM (inactive)
- GI50 [15]: 61.5 µM (inactive)
- GI50 [16]: > 100 µM (inactive)
- GI50 [19]: 23.8 µM (inactive)
- GI50 [17]: 47.9 µM (inactive)
- GI50 [18]: 22.2 µM (inactive)

Reference: ChEMBL document CHEMBL1201862, “PubChem BioAssay data set” (2004)
